Data set [1] can be described thus: Free fraction in rat plasma (separate experiment, not shown). The data set is classed as in vitro ADME.
Data set [2] relates to SNB-19 GBM cell line. Description: Colony formation with radiotherapy, SNB-19. The following applies: SNB19; 0.1 μM to 5.0 μM; irradiated at 1, 2 and 4 Gy; p<0.0001. The data set is classed as cell-based. The procedure: GBM tumor cells (T98G, LN18, SNB-19 and U251) were grown as an adherent monolayer at 37° C. in a humidified atmosphere (5% CO2, 95% air). For experimental use, tumor cells were detached from culture flasks by a 5-minute treatment with trypsin-versene, in Hanks' medium without calcium or magnesium and neutralized by addition of complete culture medium. Cells were counted and viability assessed using a 0.25% trypan blue exclusion assay. All cell lines were appropriately seeded following the conditions for monolayer colony formation in 6-well plates (Ref #152795, Nunc, Dutscher) in 1.9 ml of cell culture medium, at 3 densities for evaluation of a proclonogenic effect. […]
Treatments were performed at 24 hours (D1) after seeding by addition of ×20 concentrated compound or vehicle solutions, to obtain final concentrations of 0.1 μM to 5.0 μM of Compound of formula (I) [referred to as CoF (I) in FIG. 3]. […] After 14 days of incubation, colonies were counted after being stained through incubation with 500 μl of a solution of water containing 0.05% (w/v) of methylene blue (Ref. M4159, Sigma) for 2 hours. Colonies were counted using a colony counter pen (Ref #045855, Dutscher, Brumath, France). The Surviving Fraction was calculated for each condition using the equations described below and plotted on a semi-logarithmic graph using the Linear-Quadratic model. […]

Data set [3] in a line: Plasma and brain concentrations (PK) in healthy mice after oral dosing. It counts as in vivo, Nu/Nu mice. The following applies: 30 mg/kg, oral; for Kp / Cmax / AUC(0-inf) / AUC(0-t): male, Nu/Nu, mouse, po; for Kp: brain/plasma; for Cmax / AUC(0-inf) / AUC(0-t): plasma; for AUC(0-inf): read-out: AUCInf, plasma; for AUC(0-t): read-out: AUCLast, plasma. The procedure:
Healthy male Nu/Nu mice were treated orally with either (i) a single dose of 30 mg/kg Compound of formula (I) ([…], 3 mice per time-point), (ii) 30 mg/kg of Compound of formula (I) given once a day for four consecutive days (27 mice in total, 3 mice per time-point), (iii) 30 mg/kg of AZD-1775 (adavosertib, purchased from Combi-Blocks, San Diego, USA) given twice a day for three consecutive days and once on day four (27 mice in total, 3 mice per time-point), (iv) or 80 mg/kg of Zn-c3 (purchased from EOS Med Chem, Jina City, China) given once a day for four consecutive days (27 mice in total, 3 mice per time-point). The doses used for each compound have previously been reported as active dose levels. Compound of formula (I) was formulated as a suspension in 0.5% methylcellulose with 1% Tween 80 and administered at a concentration of 3.0 mg/mL. […] The dosing volume of all formulations was 10 mL/kg. At designated time-points the mice were euthanized by carbon dioxide inhalation, blood samples were collected by cardiac puncture into K2EDTA containing tubes. The tubes were inverted several times, placed on ice and centrifuged within 30 min of collection (4° C. for 5 min at 6000 rpm) to obtain plasma. The plasma samples were snap frozen in dry ice and stored at −80° C. until analysis. The brain was collected, weighed and snap frozen in dry ice until further analysis. To obtain brain homogenates, firstly water was added to each brain (brain weight:water volume=1:4) then the brain was homogenized with a H-speed dispersator (time procedure: homogenizing for 10 s and interval of 10 s per time, total 3-5 times; cleaning procedure for dispersator: Water-Methanol-Ethanol-Water, 10 s each). The brain homogenate samples were transferred to individual tubes and stored at −80° C. prior to analysis. The mouse plasma and brain samples were analysed as follows. For each analytical batch of plasma and brain samples, the standard and quality control (QC) samples were freshly prepared in blank male Nu/Nu mouse plasma (with K2EDTA anticoagulant) and brain homogenate. To an aliquot of each standard, QC, control blank and study samples, internal standard (^13CD6-Compound of formula (I) for Compound of formula (I), terfenadine for AZD-1775 and Zn-c3) in methanol/acetonitrile (1:1, v/v) was added. The samples were mixed for 1 minute and centrifuged at 4000 rpm at 4° C. for 15 minutes. Supernatants were transferred and diluted in MeOH/water (1:1, v/v, with 0.1% FA) prior to LC-MS/MS injection. Chromatographic separation was achieved on an Shimadzu LC-20AD using a Kinetex 2.6μ C18 100A column (50 mm*3.00 mm) for Compound of formula (I) and AZD-1775 samples and a ACE 5 C4 column (50 mm*2.1 mm) for Zn-c3 samples with gradient elution using the following conditions: flow rate: 0.7 mL/min; run time: 3.0 min; mobile phase: A: 5 mM NH4OAc (0.1% FA), B: Acetonitrile (0.1% FA). Detection was accomplished with an AB Sciex 5500 utilizing electrospray MS/MS in positive ion multiple reaction monitoring mode (MRM). The MRM channels were 511.29/98 for Compound of formula (I), 501.47/442.20 for AZD-1775 and 527.36/468.10 for Zn-c3. The MRM channels of internal standard were 518.17/102.10 (^13CD6-Compound of formula (I)) for Compound of formula (I), 472.40/436.40 (terfenadine) for AZD-1775 and Zn-c3. The measured plasma and brain concentrations at each time-point, the nominal sample collection time, and intended dosages were used for pharmacokinetic analysis. The PK parameters of all study compounds were determined by non-compartmental analysis using WinNonlin Version 8.0 (Pharsight).

Data set [4] in a line: Binding to plasma proteins. The data set is classed as in vitro ADME. To be noted: human. The procedure:
Thus, the unbound (or free fraction) of the Study Drug and the N^32-desmethyl-Study drug are calculated.

Read-outs that look alike come from different tables or passages of the source.

With `Cc1cc(Nc2ncc3c(n2)N(C)CN(c2c(Cl)cccc2Cl)C3=O)ccc1C1CCN(C)CC1` [Compound of formula (I)], the figures for the fraction unbound in data set [1] and in data set [4] were 0.078 and 0.083, respectively. Also, the “Effect on radiotherapy (surviving fraction, colony formation)” value in data set [2] is recorded as “significantly increased effect of radiotherapy”. In addition, the “AUCInf, brain” value is 31763 ng·h/g in data set [3] (qd for four days, day 4) and 37471 ng·h/g in data set [3] (single dose, day 1). The “AUCLast, brain” value in data set [3] (qd for four days, day 4) was 31610 ng·h/g; in data set [3] (single dose, day 1), 37368 ng·h/g. The “Cmax, brain” value is 1963 ng/g in data set [3] (qd for four days, day 4) and 3557 ng/g in data set [3] (single dose, day 1). For the same compound, the Kp in data set [3] (qd for four days, day 4, read-out: Brain to plasma ratio based on AUCInf) was determined as 0.489; in data set [3] (qd for four days, day 4, read-out: Brain to plasma ratio based on AUCLast), 0.488; in data set [3] (qd for four days, day 4, read-out: Brain to plasma ratio based on Cmax), 0.498; in data set [3] (single dose, day 1, read-out: Brain to plasma ratio based on AUCInf), 0.44; in data set [3] (single dose, day 1, read-out: Brain to plasma ratio based on AUCLast), 0.439; in data set [3] (single dose, day 1, read-out: Brain to plasma ratio based on Cmax), 0.505. Besides, the Cmax – broadly, the maximum level reached in the sampled fluid or tissue – was found to be 3940 ng/mL in data set [3] (qd for four days, day 4) and 7040 ng/mL in data set [3] (single dose, day 1). Moreover, the AUC(0-inf) in data set [3] (qd for four days, day 4) came out at 65000 ng·h/mL; in data set [3] (single dose, day 1) it was 85200 ng·h/mL. Also, the AUC(0-t) in data set [3] (qd for four days, day 4) was determined as 64800 ng·h/mL; in data set [3] (single dose, day 1), 85100 ng·h/mL.

The record behind these values is patent US20260256790A1, “DEBIO-0123 IN COMBINATION WITH TEMOZOLOMIDE AND RADIOTHERAPY FOR USE IN TREATING GLIOMA” (Debiopharm International S.A., priority 2023, published 2026).
